Laboratory results published in ChEMBL document CHEMBL1201862, “PubChem BioAssay data set” (2004).
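96-well plates; 48 h exposure; 5 concentrations. Endpoints by linear interpolation between flanking doses. Not reached: highest tested concentration assigned. At the GI50, growth is halved.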 Calls of active or inactive are those of the source. Rule as the data show it: active = GI50 up to about 1.1 µM and inactive = higher.

What was measured:
Assay in all cases: growth of human tumour cells (NCI), 48 h
MCF7 = test system: MCF7
HCT-15 = test system: HCT-15
SW-620 = test system: SW-620
MDA-N = test system: MDA-N
MOLT-4 = test system: MOLT-4
M14 = test system: M14
BT-549 = test system: BT-549
U-251 = test system: U-251
TK-10 = test system: TK-10
NCI/ADR-RES = test system: NCI/ADR-RES
PC-3 = test system: PC-3
UO-31 = test system: UO-31
LOX IMVI = test system: LOX IMVI
HL-60 = test system: HL-60
HT-29 = test system: HT-29
SK-MEL-2 = test system: SK-MEL-2
SF-268 = test system: SF-268
CAKI-1 = test system: CAKI-1
786-0 = test system: 786-0

SMILES	GI50 (MCF7)	GI50 (HCT-15) [µM]	GI50 (SW-620)	GI50 (MDA-N)	GI50 (MOLT-4)	GI50 (M14)	GI50 (BT-549)	GI50 (U-251)	GI50 (TK-10)	GI50 (NCI/ADR-RES)	GI50 (PC-3)	GI50 (UO-31)	GI50 (LOX IMVI)	GI50 (HL-60)	GI50 (HT-29)	GI50 (SK-MEL-2)	GI50 (SF-268)	GI50 (CAKI-1)	GI50 (786-0)
COc1nc2ccc(Cl)c(C(O)c3ccccc3)c2nc1OC (stereo not drawn)	29.7 µM (inactive)	20.6	26.7 µM (inactive)	11.5 µM (inactive)	17.6 µM (inactive)	17.2 µM (inactive)	30.9 µM (inactive)	25.3 µM (inactive)	37.2 µM (inactive)	20.3 µM (inactive)	26.5 µM (inactive)	22.1 µM (inactive)	17.5 µM (inactive)	19.2 µM (inactive)	29.9 µM (inactive)	18.5 µM (inactive)	23.4 µM (inactive)	12.1 µM (inactive)	–
Cc1ccc(C)c2c1C/C(=C\c1ccccc1C(=O)O)C2=O	> 100 µM (inactive)	77.4	> 100 µM (inactive)	87.3 µM (inactive)	86.9 µM (inactive)	> 100 µM (inactive)	> 100 µM (inactive)	88.3 µM (inactive)	> 100 µM (inactive)	> 100 µM (inactive)	> 100 µM (inactive)	> 100 µM (inactive)	54.2 µM (inactive)	40.9 µM (inactive)	> 100 µM (inactive)	–	89.3 µM (inactive)	> 100 µM (inactive)	> 100 µM (inactive)
COC(=O)c1sc(=S)sc1SCc1cccc(CSc2sc(=S)sc2C(=O)OC)c1	> 100 µM (inactive)	> 100	> 100 µM (inactive)	> 100 µM (inactive)	> 100 µM (inactive)	71.3 µM (inactive)	26.9 µM (inactive)	25.3 µM (inactive)	29.4 µM (inactive)	> 100 µM (inactive)	> 100 µM (inactive)	> 100 µM (inactive)	> 100 µM (inactive)	–	> 100 µM (inactive)	38.8 µM (inactive)	44.5 µM (inactive)	34.5 µM (inactive)	33.4 µM (inactive)
CSc1cc(Br)ccc1-n1c(C(=O)c2ccccc2)c(SC)n(-c2ccccc2)c1=O	63.1 µM (inactive)	23	19 µM (inactive)	18.5 µM (inactive)	5.28 µM (inactive)	96.2 µM (inactive)	> 100 µM (inactive)	> 100 µM (inactive)	> 100 µM (inactive)	53.8 µM (inactive)	5.53 µM (inactive)	67 µM (inactive)	> 100 µM (inactive)	–	52.8 µM (inactive)	–	> 100 µM (inactive)	> 100 µM (inactive)	> 100 µM (inactive)
COC(=O)C1(N2CCOCC2)CCC([C@@H](c2ccccc2)C(C)[N+](=O)[O-])C1 (stereo partly drawn)	21.9 µM (inactive)	66.8	45.2 µM (inactive)	> 100 µM (inactive)	> 100 µM (inactive)	> 100 µM (inactive)	16.8 µM (inactive)	> 100 µM (inactive)	> 100 µM (inactive)	> 100 µM (inactive)	> 100 µM (inactive)	> 100 µM (inactive)	39 µM (inactive)	85.3 µM (inactive)	> 100 µM (inactive)	> 100 µM (inactive)	> 100 µM (inactive)	–	75.9 µM (inactive)
O=C1CC(CC(O)C(O)CO)CC(=O)N1 (stereo not drawn)	> 100 µM (inactive)	> 100	> 100 µM (inactive)	> 100 µM (inactive)	> 100 µM (inactive)	> 100 µM (inactive)	> 100 µM (inactive)	> 100 µM (inactive)	> 100 µM (inactive)	> 100 µM (inactive)	> 100 µM (inactive)	> 100 µM (inactive)	> 100 µM (inactive)	> 100 µM (inactive)	> 100 µM (inactive)	–	> 100 µM (inactive)	> 100 µM (inactive)	> 100 µM (inactive)
COC(=O)/C(=C\c1cn(C(C)=O)c2ccccc12)P(=O)(OC)OC	13.6 µM (inactive)	14.5	18.5 µM (inactive)	15.1 µM (inactive)	34.8 µM (inactive)	15.2 µM (inactive)	15.8 µM (inactive)	15.8 µM (inactive)	20.8 µM (inactive)	23.8 µM (inactive)	16.2 µM (inactive)	13.1 µM (inactive)	5.55 µM (inactive)	78.5 µM (inactive)	16.1 µM (inactive)	–	22.4 µM (inactive)	12.6 µM (inactive)	17.6 µM (inactive)
c1ccc(P(CCP(c2ccccn2)c2ccccn2)c2ccccc2)cc1	0.0261 µM (active)	> 100	3.51 µM (inactive)	4.57 µM (inactive)	80.2 µM (inactive)	19.6 µM (inactive)	32.9 µM (inactive)	0.0578 µM (active)	26.5 µM (inactive)	> 100 µM (inactive)	0.0281 µM (active)	33.3 µM (inactive)	0.038 µM (active)	0.0398 µM (active)	0.0247 µM (active)	7.67 µM (inactive)	–	> 90.8 µM (inactive)	11.9 µM (inactive)
